Assay results: paper PMC11385386 (Nature Communications, 2024)

Target: IDH1^R132H (Homo sapiens, UniProt O75874, R132H)
Assay: Affinity of IDH1 R132H for NADPH
Type: binding

Chain of IDH1^R132H (O75874 whole entry R132H): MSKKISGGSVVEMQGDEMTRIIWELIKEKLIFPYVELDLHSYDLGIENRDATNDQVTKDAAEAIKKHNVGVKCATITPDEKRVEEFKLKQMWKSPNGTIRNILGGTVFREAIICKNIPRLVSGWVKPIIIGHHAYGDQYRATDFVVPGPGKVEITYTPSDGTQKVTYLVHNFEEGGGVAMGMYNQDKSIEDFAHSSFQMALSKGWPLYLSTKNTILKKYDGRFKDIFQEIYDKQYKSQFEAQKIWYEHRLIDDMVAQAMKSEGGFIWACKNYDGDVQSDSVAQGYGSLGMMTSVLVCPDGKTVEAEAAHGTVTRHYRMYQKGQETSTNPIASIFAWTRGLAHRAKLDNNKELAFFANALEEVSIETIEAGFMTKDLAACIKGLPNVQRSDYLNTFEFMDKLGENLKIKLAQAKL

Kd: ~50 nM
SMILES: NC(=O)C1=CN([C@@H]2O[C@H](COP(=O)(O)OP(=O)(O)OC[C@H]3O[C@@H](n4cnc5c(N)ncnc54)[C@H](OP(=O)(O)O)[C@@H]3O)[C@@H](O)[C@H]2O)C=CC1 [NADPH]
